From US20070148159A1, “Use of crotoxin as an analgesic - CIP” (priority 2005, published 2007)
Counter-ions that a name gives are not always drawn.

Experiments:
mice = format: in vivo, mouse; settings: for inhibition of the activity of Crotoxin: summary statement on antagonist studies
[1] = cited from earlier work
[2] = format: in vivo; settings: hot-plate model; test end point 180 minutes

Compound	inhibition of the activity of Crotoxin (mice)	analgesic potency relative to morphine ([1]; halved again when given orally rather than parenterally)	duration of activity ([1]; in vivo) [h]	onset of activity ([1]; in vivo) [min]	time of maximal effect on hot-plate response [2] [min]	effect on Crotoxin-induced analgesia, hotplate test (mice; Atropine 0.25-1 mg/kg, Naloxone 1.25-5 mg/kg)
CN1[C@@H]2CC[C@H]1C[C@@H](OC(=O)C(CO)c1ccccc1)C2 (stereo partly shown) [Atropine]	failed to inhibit	–	–	–	–	–
CCOC(=O)C1(c2ccccc2)CCN(C)CC1 [Dolantin, Meperidine hydrochloride]	–	one-tenth as potent an analgesic as morphine	2 to 4	10 to 45	30	–
C=CCN1CC[C@]23c4c5ccc(O)c4O[C@H]2C(=O)CC[C@@]3(O)[C@H]1C5 [Naloxone]	failed to inhibit	–	–	–	–	no effect
